Experiments:
Type in all cases: in vivo
[1] = test system: Beet Armyworm (Spodoptera exigua); assay: Beet armyworm leaf dip (BAW), 5 days; details: percent in solution; second-instar larvae; five days
Description: (§1) The compounds in Tables 1 and 2 above were tested for insecticidal activity using the following testing procedures. LC50 values, based on the results of these tests and calculated according to dosage-mortality curves, are expressed in Table 3.
Beet Armyworm (Spodoptera exigua):
Test compounds were diluted in a 50-50 acetone-water solution. Young leaves of sugar beets (Beta vulgaris) were immersed in the test solutions for 2-3 seconds and placed on a wire screen to dry. The dried leaves were placed in petri dishes containing a moistened filter paper and infested with five second-instar beet armyworm larvae. The dishes were placed in a high humidity chamber. Mortality of the larvae was recorded five days later. Test concentrations ranged from 0.1% downward. The LC-50 values are expressed below in Table 3 under the heading "BAW" in terms of percent of the test compound in solution.

[2] = test system: Tobacco Budworm [Heliothis virescens (Fabricius)] eggs; assay: Tobacco budworm eggs (TBW-E); details: percent in solution; 2-day old eggs
Summary of the method: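 Paper towel patches bearing 2-day old eggs were dipped in acetone solutions of compound, then set in petri dishes over larval rearing medium at 78° F. Mortality was scored once all control eggs had hatched and larvae were feeding. LC50, from dosage-mortality curves, is given as percent compound in solution.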

[3] = test system: Black Bean Aphid [Aphis fabae (Scop.)]; assay: Black bean aphid spray test on nasturtium (BBA), 48 hours; details: percent of test compound in sprayed solution
Summary of the method: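 LC50, given as percent test compound in the sprayed liquid, was calculated from dosage-mortality curves using concentrations from 0.05% downward. Sprays in 50:50 acetone-water went to runoff on ~5 cm nasturtiums carrying 25-50 aphids of mixed ages, one day after infestation. Deaths were counted 48 h later under greenhouse conditions.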

[4] = test system: Cabbage Looper [Trichoplusia ni (Hubner)]; assay: Cabbage looper leaf dip (CL), 3-5 days; details: percent in solution, second-instar larvae
Summary of the method: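 Compounds in 50-50 acetone-water were applied by dipping squash cotyledons (about 1×1.5 in) for 2-3 s; dried leaves went into petri dishes on moist filter paper with 5 second-instar larvae under high humidity. Mortality was scored after 3-5 days; LC50 from dosage-mortality curves, as percent compound in solution.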

[5] = test system: Housefly [Musca domestica]; assay: Housefly contact mortality in dishes (HF), 48 hours; details: μg of test compound per 25 female flies
Summary of the method: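 Dry-film exposure of 25 female houseflies per cage, 48 h; LC50 as μg per 25 flies.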

[6] = test system: Maize weevil [Sitophilus zeamais (Motschulsky)]; assay: Maize weevil on dipped corn seeds (MW), 48 hours; details: percent in solution, adult weevils
Summary of the method: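 LC50, given as percent of compound in dipping solution, comes from dosage-mortality curves over concentrations descending from 0.01%. Four corn seeds soaked 2-3 s in 50:50 acetone:water solution were dried and held with 10 adult weevils, about 25° C, mortality read after 48 h.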

[7] = test system: Aster Leafhopper [Macrosteles fascifrens (Stal)]; assay: Aster leafhopper on dipped oat seedlings (LH), 48 hours; details: percent in solution, adults/nymphs
Summary of the method: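 LC50 values, given as percent of test compound in the dip solution, were derived from dosage-mortality curves over concentrations from 0.05% downward. Mortality was counted 48 hours after ten leafhopper adults/nymphs were enclosed on treated seedlings. The seedlings were oats, about 10 cm tall, briefly dipped in 50-50 acetone-water.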

[8] = test system: Tobacco Budworm [Heliothis virescens (Fabricius)] larvae; assay: Tobacco budworm larvae, contact (TBW-C), 5 days; details: percent in solution, second-instar larvae
Description: as §1
Tobacco Budworm [Heliothis virescens (Fabricius)]:
(a) Contact: Test compounds were diluted in a 50-50 acetone-water solution. Cotton (Gossypium sp.) cotyledons were immersed in the test solutions for 2-3 seconds and placed on a wire screen to dry. The dried leaves were placed in petri dishes containing a moistened piece of filter paper and infested with 5 second-instar tobacco budworm larvae. The dishes were placed in a high humidity chamber for 5 days, and percent mortality of the larvae recorded. Test concentrations ranged from 0.1% downward. The LC-50 values are expressed below in Table 3 under the heading "TBW-C" in terms of percent of the test compound in the solution.

Structure (SMILES) | LC50 BAW [1] | LC50 TBW E (eggs) [2] | LC50 BBA [3] | LC50 CL [4] | LC50 HF [5] | LC50 MW [6] | LC50 LH [7] | LC50 TBW C (contact) [8]
CC(C)C(=Nc1ccc(Cl)cc1)OCc1ccc(F)c(Oc2ccccc2)c1 [Compound 23] | 0.001% | 0.017% | 0.001% | 0.0005% | 5 µg |  |  | 
CC(C)(C)C(=Nc1ccc(Cl)cc1)OCc1cccc(Oc2ccccc2)c1 [Compound 30] |  | > 0.1% | > 0.05% | 0.003% | > 100 µg | > 0.01% | > 0.05% | 0.01%
CC(C)C(=Nc1ccc(Cl)c(Cl)c1)OCc1cccc(Oc2ccc(F)cc2)c1 [Compound 37] |  | 0.014% |  | 0.0004% | 21 µg | 0.009% | 0.002% | 0.0005%
Fc1ccc(N=C(OCc2cccc(Oc3ccccc3)c2)C2CC2)cc1 [Compound 45] | 0.1% |  | 0.03% | 0.03% | 30 µg |  | > 0.05% | 
CC(C)C(=Nc1ccc(F)c(F)c1)OCc1cccc(Oc2ccc(F)cc2)c1 [Compound 60, N-(3,4-Difluorophenyl)-O-(4'-fluoro-3-phenoxybenzyl)isobutyrylimidate] |  | 0.017% |  | 0.001% | 8 µg | 0.0075% | 0.002% | 0.0009%
CC(C)C(=Nc1ccc(F)c(C(F)(F)F)c1)OCc1cccc(Oc2ccc(F)cc2)c1 [Compound 120] |  | 0.04% | 0.0006% | 0.00015% | 14 µg | > 0.01% | 0.0003% | 0.0025%
COc1ccccc1N=C(OCc1cccc(Oc2ccccc2)c1)C(C)C [Compound 145] |  | > 0.1% | > 0.05% | 0.05% | > 100 µg |  | > 0.05% | 0.05%
O=[N+]([O-])c1cccc(N=C(OCc2cccc(Oc3ccccc3)c2)C(Cl)Cl)c1 [Compound 174] | 0.1% | > 0.1% | 0.05% | 0.03% | 17 µg |  |  | 
CC(C)C(=Nc1cccc(Cl)c1)OCc1cccc(Oc2ccc(F)cc2)c1 [Compound 194] |  | 0.04% | 0.001% | 0.0005% | 10 µg | > 0.01% | 0.0005% | 0.0017%
CC(C)C(=Nc1ccc(F)c(Cl)c1)OCc1cccc(Oc2ccc(C#N)cc2)c1 [Compound 196] |  | > 0.1% |  | 0.0006% | 17 µg | > 0.01% | > 0.05% | 0.001%
CC(C)C(=Nc1cccc(C(F)(F)F)c1)OCc1cccc(Oc2ccc(F)cc2)c1 [Compound 202] |  | > 0.1% | 0.003% | 0.00024% | 18 µg | > 0.01% | 0.0003% | 0.0007%
CC(C)C(=Nc1ccc(F)cc1F)OCc1cccc(Oc2ccc(F)cc2)c1 [Compound 209] |  | 0.1% | 0.01% | 0.0007% | 17 µg | > 0.01% | 0.001% | 0.005%
CC(C)C(=Nc1ccc(Br)cc1)OCc1cccc(Oc2ccc(F)cc2)c1 [Compound 226] |  | 0.1% | 0.01% | 0.0005% | 16 µg | 0.009% | 0.002% | 0.001%
CC(C)C(=Nc1ccc(I)cc1)OCc1cccc(Oc2ccc(F)cc2)c1 [Compound 234] |  | 0.09% | 0.003% | 0.00045% | 38 µg | > 0.01% | 0.003% | 0.0013%
CC(C)C(=Nc1ccc(F)c(Cl)c1)OCc1cccc(Oc2ccc(Br)cc2)c1 [Compound 238] |  | 0.05% | 0.003% | 0.0002% | 25 µg | > 0.01% | > 0.05% | 0.0004%
CC(C)C(=Nc1ccc(F)c(Br)c1)OCc1cccc(Oc2ccc(F)cc2)c1 [Compound 253] |  | > 0.1% | 0.002% | 0.00013% | 10 µg | > 0.01% | 0.003% | 0.0005%
CC(C)C(=Nc1ccc(F)c(C(F)(F)F)c1)OCc1ccc(F)c(Oc2ccc(Cl)cc2)c1 [Compound 297] |  | 0.025% |  | 0.00027% | 23 µg | 0.0071% | 0.0001% | 0.00075%
CC(C)C(=Nc1ccc(F)c(Cl)c1)OCc1cccc(Oc2ccccc2)n1 [Compound 462] |  | 0.04% | 0.001% | 0.001% | 7 µg | > 0.05% | 0.001% | 0.0025%
C#CCc1c(F)c(F)c(COC(=Nc2ccc(F)c(Cl)c2)C(C)C)c(F)c1F [Compound 520] |  | > 0.1% | 0.0002% | > 0.1% | 5.5 µg | 0.0042% | 0.0003% | 0.00075%
CC(C)C(=Nc1ccc(F)c(Cl)c1F)OCc1cccc(Oc2ccc(F)cc2)n1 [Compound 521] |  | > 0.1% | 0.0008% | 0.00005% | 7.5 µg | 0.01% | 0.05% | 0.0005%
CC(C)C(=Nc1ccc(Cl)c(Cl)c1)OCc1cccc(Oc2ccc(Cl)cc2)n1 [Compound 523] |  | > 0.1% | 0.001% | 0.00015% | 22 µg | > 0.01% | > 0.05% | 0.0002%
CC(C)C(=Nc1ccc(C(F)(F)F)cc1)OCc1cccc(Oc2ccc(Cl)cc2)n1 [Compound 530] |  | 0.005% | 0.0003% | 0.00027% | 9.8 µg | > 0.01% | 0.05% | 0.00005%
CC(C)C(=Nc1ccc(F)c(Cl)c1)OCc1cccc(Oc2ccc(F)c(F)c2)n1 [Compound 531] |  | > 0.1% | > 0.05% | > 0.1% | 5 µg | > 0.01% | > 0.05% | 0.00037%
